Assay results published in patent US20070225279A1, “Therapeutic combinations for the treatment of depression” (Wyeth, priority 2006, published 2007).

Experiments:
Male Swiss Webster mice [1] = settings: general statement on clinically effective drugs; cited from earlier work
Male Swiss Webster mice [2] = assay: Tail suspension test; format: in vivo; settings: for decrease in immobility time: cotreated 30 minutes prior to the test
Excerpt: Compound 1, [drawing 11] was used to exemplify the effectiveness of compounds of the present invention in the tail suspension test. While not a direct model of depression, the tail suspension test is an assay that can evaluate antidepressant-like effects of drugs. […] Specifically, they decrease the amount of time the mice spend immobile after being hung upside down by their tails during the test. It is impossible to determine if a mouse is indeed depressed. However, the fact that clinically effective antidepressants reduce immobility lends predictive validity to the model. Animals
Male Swiss Webster mice (Charles River) weighing 25-35 g were used throughout this study. They were housed in groups of five per cage in an AALAC-accredited facility that was maintained on a 12-h light dark cycle (lights on at 0600 h) and had free access to food and water. Experimental groups consisted of 12 mice, randomly assigned to treatment groups. All experiments were performed between 9:00 AM and noon in accordance to the Guide for the Care and Use of Laboratory Animals as adopted and promulgated by the National Institutes of Health (Pub. 85-23, 1985).
Solutions of Compound 1 and paroxetine were freshly prepared; each dissolved in distilled water. All drugs were injected i.p. at a volume of 10 ml/kg body weight. Combination treatments were cotreated, 30 minutes prior to the test.
The procedure followed in this study was a variant of the one originally described by Steru et al. (1985). 30 minutes following treatment, the mice were suspended upside down by the tail using adhesive laboratory tape (VWR International), to a flat metal bar connected to a strain gauge within a tail suspension chamber (Med Associates). The time spent immobile during a 6-minute test session was automatically recorded. 8 mice were simultaneously tested within separate chambers. Data collected were expressed as a mean of immobility time and statistical analysis was performed using a one-way ANOVA with least significant difference (LSD) post-hoc test.

For `CNCCC(Oc1ccc(C(F)(F)F)cc1)c1ccccc1` (centres unmarked) [fluoxetine, N-methyl-3-(p-trifluoromethylphenoxy)-3-phenylpropylamine], the “effectiveness in tail suspension assay (decrease of time spent immobile)” value (Male Swiss Webster mice [1]) is given as “effective in this assay”.

With `c1cc2c3c(c1)[C@H]1CCC[C@H]1N3CCNC2` [Compound 1] the “decrease in immobility time” value (Male Swiss Webster mice [2]; 1 mg/kg Compound 1 in combination with 30 mg/kg paroxetine, i.p.) was 24%, the “decrease in immobility time” value (Male Swiss Webster mice [2]; 3 mg/kg Compound 1 in combination with 30 mg/kg paroxetine, i.p.) was 35% and the “antidepressant-like effect (immobility time) in tail suspension test” value (Male Swiss Webster mice [2]; Compound 1 alone, 1 or 3 mg/kg i.p., 30 minutes prior to the test, 6-minute session) was “Neither dose of Compound 1 (1 or 3 mg/kg) produced an antidepressant-like effect alone”.

Work on `Fc1ccc([C@@H]2CCNC[C@H]2COc2ccc3c(c2)OCO3)cc1` (relative stereo) [paroxetine, trans-(−)-3-[(1,3-benzodioxol-5-yloxy)methyl]-4-(4-fluorophenyl)piperidine, reference compound] yielded a decrease in immobility (Male Swiss Webster mice [2]; 30 mg/kg paroxetine alone, i.p., 30 minutes prior to the test, ns) of 18%.
